We go through five molecules from patent US20070259856A1, “Method for Activating Trpv4 Channel Receptors by Agonists” (priority 2004, published 2007).

“And” between values parts separate entries of the source, which are not always exact repeats. Equal values may be shown once. Read-outs that look alike come from different tables or passages of the source.

One experiment deals with TRPV4 channel receptors. The experiment is described as follows: Activation of TRPV4 channel receptors in cartilage explants. Format: cell-based, human, rat, rabbit, mouse, canine, monkey, or bovine. Conditions: compared with chondrocytes extracted from a cartilage matrix.
Experiment [1] has as its target T1, TRPV4 channel receptor (Homo sapiens, UniProt Q9HBA0). The experiment is described as follows: Intracellular calcium (FLIPR, Fluo-3) in HEK293 cells transfected with human TRPV4 channel receptor. More on the design: V5-His (from the vector's name only); expressed in transfected cells; host or cells: HEK293. It counts as cell-based. On the procedure:
(§1) TRPV4 channel receptor cDNA was inserted into the expression vector pcDNA3.1 V5-His (Invitrogen, Carlsbad, Calif.). Wildtype HEK293 cells, or HEK293 cells transfected with the human TRPV4 channel receptor: pcDNA3.1 V5-His construct, or mock transfected cells, or bovine chondrocytes, were seeded into 96-well microtitre plates at 25,000 cells/well and cultured overnight. The cells were then incubated with 4 μM Fluo-3 (Fluo-3: Molecular Probes (Eugene, Oreg.)) for 2 hours at room temperature in the dark. Dye loaded cells were washed 4× with Tyrodes buffer: (NaCl, 145 mM; KCl, 2.5 mM; Hepes, 10 mM; Glucose, 10 mM; MgCl2, 1.2 mM; CaCl2, 1.5 mM), which also contained 0.2% BSA but not probenecid. Agonists and antagonists were also prepared in Tyrodes buffer. Cells were preincubated for 30 minutes with antagonist or buffer. Agonist addition and measurement of cytoplasmic calcium concentration was performed in the FLIPR (Smart, et al., (2000) Br. J. Pharmacol. 129, 227-230).
In general terms: A change in cytosolic calcium serves as a functional read-out for many receptors and channels.

For experiment [2], the target named is T1, TRPV4 channel receptor. Briefly: Ca2+ influx in human articular chondrocytes (FlexStation). Conditions: for HAC % eff: human articular chondrocytes.
The target in experiment [3] is T2, TRPV4 channel receptor (Bos taurus, UniProt A0A8F4X677).
T2 construct: endogenous in cells; host or cells: bovine articular chondrocytes
T2 sequence (A0A8F4X677 1-871): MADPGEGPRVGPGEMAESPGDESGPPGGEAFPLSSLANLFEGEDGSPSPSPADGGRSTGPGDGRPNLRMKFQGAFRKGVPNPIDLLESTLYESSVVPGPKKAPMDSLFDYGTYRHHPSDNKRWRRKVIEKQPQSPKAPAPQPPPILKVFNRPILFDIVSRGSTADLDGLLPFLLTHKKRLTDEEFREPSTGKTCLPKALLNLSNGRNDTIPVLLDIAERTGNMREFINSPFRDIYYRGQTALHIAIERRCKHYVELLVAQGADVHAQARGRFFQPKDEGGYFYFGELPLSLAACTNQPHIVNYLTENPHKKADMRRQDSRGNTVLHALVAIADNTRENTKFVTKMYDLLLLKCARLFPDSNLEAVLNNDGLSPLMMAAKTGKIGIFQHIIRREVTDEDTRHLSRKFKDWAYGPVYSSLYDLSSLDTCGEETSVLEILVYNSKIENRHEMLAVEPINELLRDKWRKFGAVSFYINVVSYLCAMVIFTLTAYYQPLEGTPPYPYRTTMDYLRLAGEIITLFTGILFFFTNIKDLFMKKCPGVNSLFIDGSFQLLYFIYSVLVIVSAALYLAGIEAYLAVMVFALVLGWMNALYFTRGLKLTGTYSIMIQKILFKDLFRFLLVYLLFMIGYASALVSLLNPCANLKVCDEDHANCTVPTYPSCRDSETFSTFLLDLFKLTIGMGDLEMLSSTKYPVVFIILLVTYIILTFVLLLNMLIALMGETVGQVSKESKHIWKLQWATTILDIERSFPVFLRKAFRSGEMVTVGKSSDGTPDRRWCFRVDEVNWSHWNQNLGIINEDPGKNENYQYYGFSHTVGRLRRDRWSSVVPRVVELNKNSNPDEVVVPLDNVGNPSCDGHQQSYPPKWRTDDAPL
The experiment is described as follows: Ca2+ influx in bovine articular chondrocytes (FlexStation). Format: cell-based.

For another experiment, the system named is wild type HEK293 cells. Briefly: Intracellular calcium (FLIPR) in wild type HEK293 cells. It counts as cell-based. The arrangement: key to pEC50 wild type: IA = inactive. On the procedure:
as §1

A further experiment deals with TRPVR1 (Homo sapiens, UniProt Q8NER1). It counts as cell-based. The arrangement: key to pEC50 TRPVR1: IA = inactive.
Chain of TRPVR1 (Q8NER1 whole entry): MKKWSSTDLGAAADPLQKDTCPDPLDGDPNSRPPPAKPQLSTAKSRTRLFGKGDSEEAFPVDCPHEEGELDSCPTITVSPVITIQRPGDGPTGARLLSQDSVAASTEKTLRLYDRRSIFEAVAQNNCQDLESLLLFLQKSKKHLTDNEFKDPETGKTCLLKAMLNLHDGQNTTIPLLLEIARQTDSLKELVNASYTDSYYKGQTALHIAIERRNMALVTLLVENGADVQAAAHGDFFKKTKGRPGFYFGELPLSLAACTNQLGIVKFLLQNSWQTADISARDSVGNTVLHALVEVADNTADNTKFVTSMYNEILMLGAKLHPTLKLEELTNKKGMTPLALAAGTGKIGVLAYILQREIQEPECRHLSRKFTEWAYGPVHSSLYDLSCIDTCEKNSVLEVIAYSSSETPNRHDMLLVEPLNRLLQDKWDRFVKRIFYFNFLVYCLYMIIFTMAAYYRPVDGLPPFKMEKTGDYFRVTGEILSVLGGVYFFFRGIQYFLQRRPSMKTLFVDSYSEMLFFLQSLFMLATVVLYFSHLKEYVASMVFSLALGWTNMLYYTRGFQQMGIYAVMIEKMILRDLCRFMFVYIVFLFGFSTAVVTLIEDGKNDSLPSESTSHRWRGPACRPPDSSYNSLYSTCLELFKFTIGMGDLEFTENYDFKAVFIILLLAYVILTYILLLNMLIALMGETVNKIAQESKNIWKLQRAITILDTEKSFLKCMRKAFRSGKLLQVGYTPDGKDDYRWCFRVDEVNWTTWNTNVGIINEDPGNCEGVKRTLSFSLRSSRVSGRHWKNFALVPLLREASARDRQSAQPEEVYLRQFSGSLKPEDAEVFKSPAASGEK
For experiment [4], the system named is cells transfected with empty vector. Briefly: Intracellular calcium (FLIPR) in HEK293 cells transfected with empty vector. It counts as cell-based. The arrangement: key to pEC50 empty vector: IA = inactive. On the procedure:
as §1

The target of experiment [5] is TRPV4 channel receptor (Rattus norvegicus, UniProt Q9ERZ8). The experiment is described as follows: Ca2+ influx in rat articular chondrocytes (FlexStation). To be noted: for EC50: RAC EC50, rat articular chondrocytes; for EC50 / RAC % eff: N = 2; for RAC % eff: rat articular chondrocytes.
Chain of TRPV4 channel receptor (Rattus norvegicus, UniProt Q9ERZ8) (Q9ERZ8 whole entry): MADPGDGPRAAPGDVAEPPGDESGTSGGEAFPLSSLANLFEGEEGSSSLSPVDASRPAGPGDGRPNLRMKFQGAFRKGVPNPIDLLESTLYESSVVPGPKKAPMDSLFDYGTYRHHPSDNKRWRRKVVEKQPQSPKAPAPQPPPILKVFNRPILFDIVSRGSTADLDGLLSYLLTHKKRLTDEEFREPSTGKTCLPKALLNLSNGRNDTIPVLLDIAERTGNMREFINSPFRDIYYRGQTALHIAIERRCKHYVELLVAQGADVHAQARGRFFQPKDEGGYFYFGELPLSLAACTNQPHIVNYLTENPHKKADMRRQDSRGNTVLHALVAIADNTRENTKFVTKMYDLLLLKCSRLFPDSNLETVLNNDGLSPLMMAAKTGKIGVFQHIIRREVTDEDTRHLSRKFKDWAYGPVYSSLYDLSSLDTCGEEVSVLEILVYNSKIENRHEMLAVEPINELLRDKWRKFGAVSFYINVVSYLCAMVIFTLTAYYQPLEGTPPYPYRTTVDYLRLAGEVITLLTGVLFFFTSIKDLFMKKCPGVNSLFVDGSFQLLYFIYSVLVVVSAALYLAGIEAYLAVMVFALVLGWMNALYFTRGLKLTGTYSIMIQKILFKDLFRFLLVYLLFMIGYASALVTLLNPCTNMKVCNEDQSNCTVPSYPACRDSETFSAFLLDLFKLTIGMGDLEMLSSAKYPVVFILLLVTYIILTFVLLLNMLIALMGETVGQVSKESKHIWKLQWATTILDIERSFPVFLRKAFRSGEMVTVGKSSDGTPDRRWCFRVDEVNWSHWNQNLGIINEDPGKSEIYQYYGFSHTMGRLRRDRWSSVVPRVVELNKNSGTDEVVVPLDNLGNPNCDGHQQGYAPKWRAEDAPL
The subject of a further experiment is human cartilage explants. Briefly: Aggrecan degradation (GAG, DMMB) in human cartilage explants. It counts as cell-based. Conditions: Homo sapiens; estimated; 3-point concentration response. On the procedure: Because the progression of aggrecan degradation in response to IL-1 in human cartilage is slower than in bovine cartilage, culture media was removed and replaced with fresh treatments every 2-3 days for approximately 3 weeks. For each timepoint, GAG levels were measured by DMMB assay, and cumulative data released over the entire 3 week culture period was calculated.
The data represents cumulative aggrecan degradation after 21 days in culture. […] In addition, Formula IId caused a concentration-dependent reduction of IL-1-induced aggrecan degradation. […] The estimated IC50's shown in Table 7 are very similar to those IC50's calculated from IL-1-stimulated bovine cartilage.

The test system of another experiment is aggrecanase. Briefly: IL-1 induced aggrecanase production, chondrocyte-based aggrecanase peptide cleavage assay. Format: cell-based, bovine. From the text: Aggrecanases (ADAMTSs), in conjunction with MMPs, degrade aggrecan, one of the major matrix components in articular cartilage. […] 2003; 48(1): 119-133].
For experiment [6], the system named is bovine articular cartilage explants. Briefly: IL-1 induced aggrecan degradation (GAG release, DMMB) in bovine articular cartilage explants. It counts as cell-based. To be noted: Bos taurus; IL-1-stimulated bovine cartilage. From the text: Articular cartilage explants isolated from newborn calves at slaughter were placed in culture, and aggrecan degradation was initiated through stimulation with IL-1. Since aggrecan degradation in this model is believed to be mediated by aggrecanase, TRPV4 channel receptor agonists that are active in the chondrocyte-based aggrecanase peptide assay (Example 11) may also be effective inhibitors in the cartilage explant assay, presumably by blocking aggrecanase production in these tissues.
At the end of the culture period, conditioned media were assayed for glycosaminoglycan (GAG) levels by colorimetric (DMMB) assay as a measure of aggrecan degradation. In bovine explants, IL-1 induced a profound increase in the amount of GAG released into the media during the 3 day culture. When cartilage was treated with IL-1 in combination with Formula IIc, there was a concentration-dependent reduction in GAG release as shown in Table 5.

Experiment [7] addresses T1, TRPV4 channel receptor. The experiment is described as follows: FLIPR assay. Format: cell-based.
Experiment [8] concerns bovine articular cartilage explants. Briefly: IL-1 induced collagen degradation (hydroxyproline) in bovine articular cartilage explants. It counts as cell-based. Conditions: 1 uM, IL-1 50 ng/ml, media from day 14-18. On the procedure:
IL-1 stimulates collagen degradation in bovine articular cartilage explants after extended (−2-3 weeks) exposure to IL-1. Collagen breakdown was evaluated by measuring the levels of hydroxyproline, a major component of hydrolyzed collagen fibrils, using a colorimetric assay that is understood in the art. Bovine articular cartilage was stimulated with IL-1 for 18 days, in the absence or presence of Formula Ib or Formula IId (both at 1 uM). Media was removed and replaced every 2-4 days with fresh IL-1 and compound through day 18. As has been shown previously, aggrecan degradation precedes collagen breakdown in IL-1-stimulated bovine cartilage explants. Once aggrecan depletion had been achieved by day 10, media were analyzed for collagen breakdown using the hydroxyproline assay.

In experiment [9] the target is T3, TRPV4 channel receptor endogenously expressed by chondrocytes (Bos taurus, UniProt A0A8F4X677).
T3 construct: endogenous in cells; host or cells: bovine articular chondrocytes
T3 sequence (A0A8F4X677 1-871): as the sequence (A0A8F4X677 1-871) above
The experiment is described as follows: Intracellular calcium (FLIPR) in bovine articular chondrocytes. It counts as cell-based. On the procedure:
as §1
The response was dependent upon extracellular calcium ions and was blocked by the channel blocker, ruthenium red.

Setting [10] is: intracellular calcium, mean ± s.e.mean, n = 3-5.
Setting [11] is: Ca Influx - FLEX (human) EC50, human chondrocytes.
[12] abbreviates: HAC EC50, human articular chondrocytes, N = 2.
[13] abbreviates: bovine articular chondrocytes, read-out: BAC EC50.
Setting [14] is: bovine chondrocytes, read-out: Ca Influx - FLEX (bovine) EC50.

T1 sequence (Q9HBA0 whole entry): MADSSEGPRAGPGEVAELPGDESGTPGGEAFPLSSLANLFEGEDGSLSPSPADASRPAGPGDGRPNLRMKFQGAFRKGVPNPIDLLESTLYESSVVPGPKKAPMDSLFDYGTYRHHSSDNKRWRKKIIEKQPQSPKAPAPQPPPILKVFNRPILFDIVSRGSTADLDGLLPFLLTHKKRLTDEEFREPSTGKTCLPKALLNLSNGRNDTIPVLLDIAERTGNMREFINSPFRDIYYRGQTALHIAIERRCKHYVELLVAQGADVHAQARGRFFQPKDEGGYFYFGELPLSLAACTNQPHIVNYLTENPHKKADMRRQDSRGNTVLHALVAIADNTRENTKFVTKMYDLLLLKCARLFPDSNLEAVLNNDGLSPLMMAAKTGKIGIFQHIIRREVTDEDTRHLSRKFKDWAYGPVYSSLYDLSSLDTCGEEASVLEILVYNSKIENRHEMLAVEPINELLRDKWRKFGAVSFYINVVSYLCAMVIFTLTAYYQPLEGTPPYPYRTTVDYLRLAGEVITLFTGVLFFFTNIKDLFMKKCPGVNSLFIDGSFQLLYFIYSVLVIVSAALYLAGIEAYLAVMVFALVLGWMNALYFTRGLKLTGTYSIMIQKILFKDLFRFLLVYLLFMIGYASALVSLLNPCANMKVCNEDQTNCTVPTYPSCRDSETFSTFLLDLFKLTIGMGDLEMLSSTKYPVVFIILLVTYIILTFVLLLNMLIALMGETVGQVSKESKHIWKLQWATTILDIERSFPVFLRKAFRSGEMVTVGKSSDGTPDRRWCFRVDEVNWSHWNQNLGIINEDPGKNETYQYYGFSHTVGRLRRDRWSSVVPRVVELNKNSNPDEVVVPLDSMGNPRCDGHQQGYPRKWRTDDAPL

For the molecule `CCCCCCCCCC(=O)O[C@@H]1[C@@H](C)[C@@]2(O)[C@@H](C=C(CO)C[C@@]3(O)C(=O)C(C)=C[C@@H]23)[C@@H]2C(C)(C)[C@]12OC(=O)CCCCCCCCC` [Formula 4αPDD, 4α-phorbol-12,13-didecanoate], the “potency and efficacy in activating TRPV4 channel receptors in cartilage explants” value with TRPV4 channel receptors was “greatly diminished”. Besides, at TRPV4 channel receptor [1], the “intracellular calcium in HEK293-TRPV4 channel receptor cells” value was “increased intracellular calcium”. Besides, on TRPV4 channel receptor [1] (setting [10]), the “pEC50 TRPVR4” value is 5.73 ± 0.06. Moreover, the “Ca2+ influx” value on TRPV4 channel receptor [2] (human chondrocytes), at TRPV4 channel receptor [3] (bovine chondrocytes) and at TRPV4 channel receptor [5] (rat chondrocytes) was “stimulated Ca^2+ influx” each time. The “effect on intracellular calcium in wild type HEK293 cells” value with wild type HEK293 cells was “without effect”. The pEC50 wild type entry with wild type HEK293 cells (setting [10]) is “IA”. Moreover, at TRPVR1, the “activation of VR1” value was “did not activate VR1”. The “pEC50 TRPVR1” value on TRPVR1 (setting [10]) is listed as “IA”. Also, in [4], the “effect on intracellular calcium in cells transfected with empty vector” value is reported as “without effect”. Further, the pEC50 empty vector result in experiment [4] (setting [10]) is reported as “IA”.
In general, IC50 refers to the point on the concentration scale where inhibition reaches its midpoint. As usually defined, the EC50 is the concentration giving half of the maximal effect. Turning to `CC(C)C[C@H](NC(=O)c1cc2ccccc2s1)C(=O)NCCCN(C)S(=O)(=O)c1ccccc1C#N` [Formula IIIb, N-{(1S)-1-[({3-[[(cyanophenyl)sulfonyl](methyl)amino]propyl}amino)carbonyl]-3-methylbutyl}-1-benzothiophene-2-carboxamide], the IC50 was 0.5 µM in the experiment with human cartilage explants, 0.35 µM with aggrecanase, 0.4 µM in the experiment on aggrecanase (Bos taurus) and 0.4 µM in experiment [6]. Besides, the half-maximal effective concentration (EC50) is 0.28 µM on TRPV4 channel receptor [2] (setting [11]); 0.24 µM and 0.21 µM on TRPV4 channel receptor [2] (setting [12]); 0.26 µM at TRPV4 channel receptor [3] (setting [13]); 0.29 µM at TRPV4 channel receptor [3] (setting [14]); 0.7 µM at TRPV4 channel receptor [7]; 0.37 µM and 0.7 µM on TRPV4 channel receptor [5]. In addition, the HAC % eff on TRPV4 channel receptor [2] (N = 2) is 124% and 130%. The “Ca Influx - FLEX (human) % effic.” value at TRPV4 channel receptor [2] (human chondrocytes) stood at 78%. Also, the BAC % eff entry at TRPV4 channel receptor [3] (bovine articular chondrocytes) was “(104%)”. The “Ca Influx - FLEX (bovine) % effic.” value on TRPV4 channel receptor [3] (bovine chondrocytes) worked out at 70%. In addition, the RAC % eff on TRPV4 channel receptor [5] is 99% and 104%.
In the experiment on aggrecanase (Bos taurus), `CC(C)C[C@H](NC(=O)c1cc2ccccc2s1)C(=O)NCCCN(C)S(=O)(=O)c1ccc(Cl)cc1Cl` [Formula IIIc, N-{(1S)-1-[({3-[[(2,4-dichlorophenyl)sulfonyl](methyl)amino]propyl}amino)carbonyl]-3-methylbutyl}-1-benzothiophene-2-carboxamide] displayed an IC50 of 0.04 µM. Moreover, the half-maximal effective concentration (EC50) was found to be 0.25 µM at TRPV4 channel receptor [2] (setting [12]), 0.31 µM at TRPV4 channel receptor [3] (setting [13]), 0.37 µM on TRPV4 channel receptor [7] and 0.14 µM at TRPV4 channel receptor [5]. In addition, the HAC % eff at TRPV4 channel receptor [2] (N = 2) was determined as 127%. Moreover, the BAC % eff entry on TRPV4 channel receptor [3] (bovine articular chondrocytes) is listed as “(94%)”. Further, at TRPV4 channel receptor [5], the RAC % eff is recorded as 70%.
As usually defined, the inhibition is the change of the read-out against control, counted positive when it falls. Turning to `CC(C)C[C@H](NC(=O)c1cc2ccccc2n1C)C(=O)N[C@@H]1CCCN(S(=O)(=O)c2ccccc2C#N)CC1` [Formula Ib, N-{(1S)-1-[({(4R)-1-[(2-cyanophenyl)sulfonyl]hexahydro-1H-azepin-4-yl}amino)carbonyl]-3-methylbutyl}-methyl-1H-indole-2-carboxamide], the IC50 with human cartilage explants was 0.3 µM; in the experiment with aggrecanase (Bos taurus), 0.6 µM; in [6], 0.2 µM. In addition, the 50% effective concentration (EC50) on TRPV4 channel receptor [2] (setting [11]) was 0.26 µM; at TRPV4 channel receptor [3] (setting [14]), 0.28 µM. The “Ca Influx - FLEX (human) % effic.” value at TRPV4 channel receptor [2] (human chondrocytes) amounted to 133%. Besides, the “Ca Influx - FLEX (bovine) % effic.” value at TRPV4 channel receptor [3] (bovine chondrocytes) worked out at 119%. For the same molecule, the “Hydroxyproline Mean ± SEM” value in experiment [8] is 6 ± 2 µg. In addition, in experiment [8] (Bos taurus, 336 h), at 1 µM the inhibition was 95%.
With `N.N.N.N.N.N.N.N.N.N.N.N.N.N.[Cl-].[Cl-].[Cl-].[Cl-].[Cl-].[Cl-].[O-2].[O-2].[Ru+3].[Ru+3].[Ru+4]` [Ruthenium Red, reference compound], the “block of the response to 4α-PDD” value in [9] is on record as “blocked”. Moreover, the “reversal of the effects of 4α-PDD on Ca2+ influx” value at TRPV4 channel receptor [2] (human chondrocytes), on TRPV4 channel receptor [3] (bovine chondrocytes) and at TRPV4 channel receptor [5] (rat chondrocytes) was “reduce Ca^2+ influx down to baseline levels” throughout.
